This experiment addresses Human Full Length PARG (Homo sapiens (Human), UniProt Q86W56). The experiment can be described thus: PARG in vitro enzyme assay (TR-FRET). Format: biochemical. The note with it: read-out: PARG_EC50_ENZYME. The procedure: PARG In vitro assays were conducted in a total volume of 15 ul in a standard 384 well format. 5 ul of Human Full Length PARG (Produced internally by Astra Zeneca), used at a final reaction concentration of […], was added to 5 ul of Ribosylated PARP substrate (also produced internally by Astra Zeneca) at final reaction concentration of 4.5 nM in assay buffer (50 mM Tris pH7.4, 0.1 mg/ml BSA, 3 mM EDTA, 0.4 mM EGTA, 1 mM DTT, 0.01% Tween 20, 50 mM KCl). The reaction was incubated at room temperature for 10 minutes and then 5 ul detection reagent was added. Detection Reagent consists of 42 nM MAb Anti-6HIS XL665 (CisBio: 61 HISXLB) and 2.25 nM Streptavidin Europium Cryptate (CisBio: 610SAKLB), both at 3× working stock concentrations (final concentrations of 14 nM and 0.75 nM respectively), in a detection buffer of 50 mM Tris pH7.4, BSA at 0.1 mg/ml and KF at 100 mM. Following incubation at room temperature for 60 minutes in the dark, TR-FRET signal was measured at Ex 340 and Em 665 and Em 620. A ratio was calculated as Em665/EM620×104 for each well and used to calculate percent inhibition for test compounds.
A general note: Time-resolved FRET reads energy transfer from a long-lived donor to a nearby acceptor.

Human Full Length PARG, sequence (Q86W56 whole entry): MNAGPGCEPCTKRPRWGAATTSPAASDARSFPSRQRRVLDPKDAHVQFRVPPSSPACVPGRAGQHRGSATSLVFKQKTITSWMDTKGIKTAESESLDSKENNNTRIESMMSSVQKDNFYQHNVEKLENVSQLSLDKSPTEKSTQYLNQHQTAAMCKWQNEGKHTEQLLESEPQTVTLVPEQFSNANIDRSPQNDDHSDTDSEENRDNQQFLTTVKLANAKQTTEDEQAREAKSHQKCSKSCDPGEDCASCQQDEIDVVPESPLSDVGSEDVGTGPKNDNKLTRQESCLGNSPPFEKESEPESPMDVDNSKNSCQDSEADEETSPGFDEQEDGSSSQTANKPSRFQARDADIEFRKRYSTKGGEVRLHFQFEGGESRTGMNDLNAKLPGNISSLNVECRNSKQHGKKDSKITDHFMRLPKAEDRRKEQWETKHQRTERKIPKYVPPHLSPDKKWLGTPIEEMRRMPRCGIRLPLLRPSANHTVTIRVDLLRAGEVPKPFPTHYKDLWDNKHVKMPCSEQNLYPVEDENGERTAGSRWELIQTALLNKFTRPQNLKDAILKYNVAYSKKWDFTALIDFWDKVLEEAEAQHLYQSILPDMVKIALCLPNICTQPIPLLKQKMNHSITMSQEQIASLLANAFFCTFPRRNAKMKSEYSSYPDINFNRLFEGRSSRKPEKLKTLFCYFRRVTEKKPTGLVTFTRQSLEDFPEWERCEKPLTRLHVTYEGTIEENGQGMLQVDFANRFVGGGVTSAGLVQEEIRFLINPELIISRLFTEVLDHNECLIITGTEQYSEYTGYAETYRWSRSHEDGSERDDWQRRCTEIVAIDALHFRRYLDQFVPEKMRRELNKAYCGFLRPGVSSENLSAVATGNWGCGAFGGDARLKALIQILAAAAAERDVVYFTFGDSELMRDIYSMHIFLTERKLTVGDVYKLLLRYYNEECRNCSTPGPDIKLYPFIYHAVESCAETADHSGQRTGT

With `CC1(NS(=O)(=O)c2ccc3c(c2)[nH]c(=O)n3Cc2ccc(F)cc2)CC1` [Example 72, 1-[(4-Fluorophenyl)methyl]-N-(1-methylcyclopropyl)-2-oxo-3H-benzimidazole-5-sulfonamide], the EC50 was determined as 8.3 µM.

On to `Cc1nnc(-n2c(=O)n(CCN(C)C)c3ccc(S(=O)(=O)NC4(C)CC4)cc32)o1` [Example 137], for which the EC50 turned out to be 2.28 µM.

For `Cc1nnc(-n2c(Cc3cnn(C)c3)nc3ccc(S(=O)(=O)NC4(C)CC4)cc32)s1` [Example 120], the EC50 was 0.867 µM.

On to `Cc1nnc(-n2c(=O)n(CCC(N)=O)c3ccc(S(=O)(=O)NC4(C)CC4)cc32)o1` [Example 151], for which the EC50 came to 1.16 µM.

Consider `Cc1nnc(-n2c(=O)n(CCN3CCCCC3)c3ccc(S(=O)(=O)NC4(C)CC4)cc32)s1` [Example 149], for which the EC50 was determined as 0.735 µM.

On to `Cc1ccc(C(=O)n2c(=O)n(C)c3ccc(S(=O)(=O)NC4(C)CC4)cc32)cc1` [Example 29], for which the EC50 was 4.46 µM.

For the compound `Cc1nnc(-n2c(=O)n(CC3CCCCN3C)c3ccc(S(=O)(=O)NC4(C)CC4)cc32)o1` (centres unmarked) [Example 138], the EC50 was found to be 1.02 µM.

Consider `COc1cc(Cn2c(=O)n(C)c3cc(S(=O)(=O)NC4(C)CC4)ccc32)cc(OC)c1` [Example 50], for which the EC50 stood at 4.91 µM.

For the compound `Cc1nnc(-n2c(=O)n(CCCN(C)C)c3ccc(S(=O)(=O)NC4(C)CC4)cc32)o1` [Example 133], the EC50 stood at 1.14 µM.

As to `Cc1nnc(-n2c(=O)n(CC3CCCN(C)C3)c3ccc(S(=O)(=O)NC4(C)CC4)cc32)s1` (centres unmarked) [Example 136], the EC50 was 0.567 µM.

Turning to `Cn1c(=O)n(Cc2ccccc2)c2ccc(S(=O)(=O)NC3(C)CC3)cc21` [Example 3], the EC50 was found to be 8.28 µM.

For the compound `CC(C)Cn1c(=O)n(C)c2cc(S(=O)(=O)NC3(C)CC3)ccc21` [Example 7], the EC50 worked out at 9.79 µM.

Turning to `COCCCn1c(=O)n(-c2nnc(C)o2)c2cc(S(=O)(=O)NC3(C)CC3)ccc21` [Example 150], the EC50 is 0.904 µM.

`Cn1c(=O)n(Cc2cc(F)cc(F)c2)c2ccc(S(=O)(=O)NC3(C)CC3)cc21` [Example 51]: the EC50 worked out at 5.26 µM.

Consider `Cn1c(=O)n(Cc2ccncc2)c2ccc(S(=O)(=O)NC3(C)CC3)cc21` [Example 13], for which the EC50 worked out at 7.12 µM.

Regarding `Cc1cc(C)cc(Cn2c(=O)n(C)c3cc(S(=O)(=O)NC4(C)CC4)ccc32)c1` [Example 49], the EC50 was 5.07 µM.

With `Cc1nnc(-n2c(=O)[nH]c3ccc(S(=O)(=O)NC4(C)CC4)cc32)s1` [Example 80, N-(1-Methylcyclopropyl)-3-(5-methyl-1,3,4-thiadiazol-2-yl)-2-oxo-1H-benzimidazole-5-sulfonamide], the EC50 worked out at 0.732 µM.

Take `Cn1c(=O)n(-c2ccc(/C=C/C(=O)O)o2)c2cc(S(=O)(=O)NC3(C)CC3)ccc21` [Example 67, (E)-3-[5-[3-Methyl-6-[(1-methylcyclopropyl)sulfamoyl]-2-oxo-benzimidazol-1-yl]-2-furyl]prop-2-enoic acid]: the EC50 amounted to 4.45 µM.

On to `Cc1nnc(-n2c(=O)n(CCN3CCOCC3)c3ccc(S(=O)(=O)NC4(C)CC4)cc32)o1` [Example 141], for which the EC50 is 1.12 µM.

On to `Cc1nnc(-n2ccc3ccc(S(=O)(=O)NC4(C)CC4)cc32)s1` [Example 115, N-(1-Methylcyclopropyl)-1-(5-methyl-1,3,4-thiadiazol-2-yl)indole-6-sulfonamide], for which the EC50 amounted to 2.32 µM.

For the compound `Cn1c(=O)n(C)c2cc(S(=O)(=O)NC3(C)CC3)c(F)cc21` [Example 56, 6-Fluoro-1,3-dimethyl-N-(1-methylcyclopropyl)-2-oxo-benzimidazole-5-sulfonamide], the EC50 was determined as 8.3 µM.

With `Cc1nnc(-n2cc(Cc3ccccc3)c3ccc(S(=O)(=O)NC4(C)CC4)cc32)s1` [Example 126, 3-Benzyl-N-(1-methylcyclopropyl)-1-(5-methyl-1,3,4-thiadiazol-2-yl)indole-6-sulfonamide], the EC50 stood at 4.28 µM.

On to `COc1cccc(Cn2c(=O)n(C)c3cc(S(=O)(=O)NC4(C)CC4)ccc32)c1` [Example 36], for which the EC50 is 6.17 µM.

With `Cc1nnc(-n2c(=O)n(CCN3CCCC3)c3ccc(S(=O)(=O)NC4(C)CC4)cc32)s1` [Example 153], the EC50 was found to be 1.12 µM.

As to `CN(C)C(=O)CCc1cnc(-n2c(=O)n(C)c3ccc(S(=O)(=O)NC4(C)CC4)cc32)s1` [Example 71, N, N-Dimethyl-3-[2-[3-methyl-6-[(1-methylcyclopropyl)sulfamoyl]-2-oxo-benzimidazol-1-yl]thiazol-5-yl]propanamide], the EC50 was 7.05 µM.

On to `Cn1c(=O)n(-c2nnc(C(F)(F)F)s2)c2cc(S(=O)(=O)NC3(C)CC3)ccc21` [Example 78], for which the EC50 is 0.717 µM.

As for `Cc1nc(C)c(Cn2c(=O)n(-c3ccn(C)n3)c3cc(S(=O)(=O)NC4(C)CC4)ccc32)s1` [Example 96], the EC50 came out at 7.03 µM.

Take `Cc1nnc(-n2c(=O)n(C)c3ccc(S(=O)(=O)NC4(C)CC4)cc32)s1` [Example 68]: the EC50 came out at 0.902 µM.

Take `Cc1nc(C)c(Cn2c(=O)n(-c3cscn3)c3cc(S(=O)(=O)NC4(C)CC4)ccc32)s1` [Example 95]: the EC50 is 0.74 µM.

As to `CC(=O)NCc1nc2ccc(S(=O)(=O)NC3(C)CC3)cc2n1-c1nnc(C)s1` [Example 124], the EC50 amounted to 7.68 µM.

On to `Cc1cccc(C(=O)n2c(=O)n(C)c3ccc(S(=O)(=O)NC4(C)CC4)cc32)c1` [Example 30], for which the EC50 came to 9.57 µM.

For `Cn1c(=O)n(Cc2ccc(C#N)c(F)c2)c2ccc(S(=O)(=O)NC3(C)CC3)cc21` [Example 58], the EC50 stood at 4.65 µM.

Regarding `Cn1c(=O)n(Cc2c(Cl)cccc2Cl)c2ccc(S(=O)(=O)NC3(C)CC3)cc21` [Example 1], the EC50 came out at 9.41 µM.

With `Cn1c(=O)n(-c2ccco2)c2cc(S(=O)(=O)NC3(C)CC3)ccc21` [Example 52], the EC50 came out at 5.16 µM.

For `COc1ccccc1Cn1c(=O)n(C)c2cc(S(=O)(=O)NC3(C)CC3)ccc21` [Example 35], the EC50 is 7.69 µM.

On to `CC(=O)n1c(=O)n(C)c2ccc(S(=O)(=O)NC3(C)CC3)cc21` [Example 24], for which the EC50 turned out to be 2.8 µM.

Turning to `Cc1nnc(-n2cc(Cc3ccc(F)cc3)c3ccc(S(=O)(=O)NC4(C)CC4)cc32)s1` [Example 127, 3-[(4-Fluorophenyl)methyl]-N-(1-methylcyclopropyl)-1-(5-methyl-1,3,4-thiadiazol-2-yl)indole-6-sulfonamide], the EC50 worked out at 6.05 µM.

Take `Cn1nccc1Cn1c(=O)n(C)c2cc(S(=O)(=O)NC3(C)CC3)ccc21` [Example 64]: the EC50 came out at 8.5 µM.

On to `Cn1c(=O)n(Cc2cccnc2)c2ccc(S(=O)(=O)NC3(C)CC3)cc21` [Example 5], for which the EC50 was determined as 6.76 µM.

Take `Cn1c(=O)n(Cc2c(F)cccc2F)c2ccc(S(=O)(=O)NC3(C)CC3)cc21` [Example 47]: the EC50 was 5.72 µM.

Take `CC1(NS(=O)(=O)c2ccc3c(c2)n(-c2nccs2)c(=O)n3Cc2ccc(F)cc2)CC1` [Example 76]: the EC50 worked out at 2.71 µM.

Turning to `Cc1nnc(-n2c(=O)n(C)c3c(C(F)(F)F)cc(S(=O)(=O)NC4(C)CC4)cc32)s1` [Example 123, 1-Methyl-N-(1-methylcyclopropyl)-3-(5-methyl-1,3,4-thiadiazol-2-yl)-2-oxo-7-(trifluoromethyl)benzimidazole-5-sulfonamide], the EC50 amounted to 0.734 µM.

On to `CNC(=O)CCc1cnc(-n2c(=O)n(C)c3ccc(S(=O)(=O)NC4(C)CC4)cc32)s1` [Example 74, N-methyl-3-[2-[3-methyl-6-[(1-methylcyclopropyl)sulfamoyl]-2-oxo-benzimidazol-1-yl]thiazol-5-yl]propanamide], for which the EC50 was found to be 9.73 µM.

In the case of `Cn1c(=O)n(CCC2CC2)c2ccc(S(=O)(=O)NC3(C)CC3)cc21` [Example 19], the EC50 is 5.36 µM.

Turning to `CC(=O)c1cn(-c2nnc(C)s2)c2cc(S(=O)(=O)NC3(C)CC3)ccc12` [Example 144, 3-Acetyl-N-(1-methylcyclopropyl)-1-(5-methyl-1,3,4-thiadiazol-2-yl)indole-6-sulfonamide], the EC50 worked out at 0.595 µM.

As for `Cn1c(=O)n(Cc2cccc(F)c2)c2ccc(S(=O)(=O)NC3(C)CC3)cc21` [Example 41], the EC50 came out at 5.77 µM.

Turning to `Cc1nc(C)c(Cn2c(=O)n(-c3cccnn3)c3cc(S(=O)(=O)NC4(C)CC4)ccc32)s1` [Example 109], the EC50 came to 0.878 µM.

On to `Cn1c(=O)n(Cc2ccccc2C(F)(F)F)c2ccc(S(=O)(=O)NC3(C)CC3)cc21` [Example 46], for which the EC50 turned out to be 9.75 µM.

As to `Cn1c(=O)n(C(=O)C2CCCCC2)c2cc(S(=O)(=O)NC3(C)CC3)ccc21` [Example 28], the EC50 is 0.352 µM.

`Cn1c(=O)n(-c2ncc(CCC(=O)O)s2)c2cc(S(=O)(=O)NC3(C)CC3)ccc21` [Example 70, 3-[2-[3-Methyl-6-[(1-methylcyclopropyl)sulfamoyl]-2-oxo-benzimidazol-1-yl]thiazol-5-yl]propanoic acid]: the EC50 is 0.804 µM.

For `CC1(NS(=O)(=O)c2ccc3c(c2)n(-c2ccccc2)c(=O)n3CC2CC2)CC1` [Example 4], the EC50 was 2.91 µM.

For `CN1CCN(CC(=O)N2CCc3ccc(S(=O)(=O)NC4(C)CC4)cc32)C1=O` [Example 25, N-(1-Methylcyclopropyl)-1-[2-(3-methyl-2-oxo-imidazolidin-1-yl)acetyl]indoline-6-sulfonamide], the EC50 is 8.92 µM.

Regarding `Cn1c(=O)n(Cc2ccc(F)cc2)c2ccc(S(=O)(=O)NC3(C)CC3)cc21` [Example 42], the EC50 was determined as 2.35 µM.
